Data taken from the supplement of paper PMC13380429.

Legend:
HepG2 [1] = assay: drug sensitivity score (DSS) for viability; higher = more toxic; extreme values may be limits of the assay; conditions: 72 h
Vero E6 [2] = assay: as above; conditions: 72 h
U2OS [3] = assay: as above; conditions: 72 h
Calu-3 [4] = assay: as above; conditions: 72 h
[5] = tested on: A549-ACE2 infected with SARS-CoV-2; assay: morphology score (similarity to uninfected cells); higher = more like uninfected cells; conditions: 24 h
Caco-2 [6] = assay: drug sensitivity score (DSS) for viability; higher = more toxic; extreme values may be limits of the assay; conditions: 72 h
Caco-2 [7] = assay: cell viability relative to DMSO; higher = less toxic; conditions: 72 h
HepG2 [8] = assay: as above; conditions: 72 h
Vero E6 [9] = assay: as above; conditions: 72 h
U2OS [10] = assay: as above; conditions: 72 h
Calu-3 [11] = assay: as above; conditions: 72 h
[12] = tested on: A549-ACE2 infected with SARS-CoV-2; assay: SARS-CoV-2 infection rate relative to DMSO; higher = more infection; conditions: 24 h
Vero E6 [13] = assay: relative viability EC50 (midpoint between 100% and the lowest measured viability); higher = less toxic; conditions: 72 h
U2OS [14] = assay: as above; conditions: 72 h
A549-ACE2 = assay: drug-induced phospholipidosis relative to tamoxifen; higher = more phospholipidosis
[15] = tested on: A549-ACE2 infected with SARS-CoV-2; assay: cell count relative to DMSO; higher = less toxic; conditions: 24 h
Caco-2 [16] = assay: relative viability EC50 (midpoint between 100% and the lowest measured viability); higher = less toxic; conditions: 72 h
HepG2 [17] = assay: as above; conditions: 72 h
Calu-3 [18] = assay: as above; conditions: 72 h

C[C@@H]1C[C@@H]([C@H](O)CC2CC(=O)NC(=O)C2)C(=O)[C@@H](C)C1 [cycloheximide]
Conditions	drug sensitivity score
Calu-3 [4]	7.3
HepG2 [1]	14.3
U2OS [3]	13.8
Vero E6 [2]	13.8

[5]
Conditions	morphology score
0.3 µM	0.91
3 µM	0.69
10 µM	0.52
30 µM	0.48

CC(C)n1cnc2c(NCCc3ccc(O)cc3)nc(-c3csc4ccccc34)nc21 [stemregenin-1]
Conditions	drug sensitivity score	relative viability EC50 [µM]
Caco-2 [6]	2.5	–
Calu-3 [4]	5	–
HepG2 [1]	2.3	–
U2OS [3]	1	–
U2OS [14]	–	> 10
Vero E6 [2]	0.2	–
Vero E6 [13]	–	> 10

Conditions	SARS-CoV-2 infection rate, [12] [%]	cell count, [15] [%]	cell viability, Caco-2 [7] [%]	cell viability, Calu-3 [11] [%]	cell viability, HepG2 [8] [%]	cell viability, U2OS [10] [%]	cell viability, Vero E6 [9] [%]	morphology score, [5]
1 nM	–	–	92.3	99.6	92.7	103	99.4	–
10 nM	–	–	104	109	91.9	101	101	–
100 nM	–	–	87.3	101	97.4	95.1	104	–
0.3 µM	93	101	–	–	–	–	–	0.34
1000 nM	–	–	99.3	80.4	91.6	96.3	100	–
3 µM	84	103	–	–	–	–	–	0.46
10000 nM	–	–	54	54.3	70.7	80.7	85.7	–
10 µM	60	117	–	–	–	–	–	0.84
30 µM	26	45	–	–	–	–	–	0

drug-induced phospholipidosis [%], A549-ACE2
Conditions	0.3 µM	0.833333 µM	3.33333 µM	6.66667 µM	10 µM	30 µM
24 h	6.01	1.64	8.25	15.8	28.5	16.7
48 h	9.44	5.9	8.13	14.7	21.9	–
72 h	7.3	7.32	13.4	21.2	27	–

O=C(O)c1ccc2[nH]cc(CCCCN3CC=C(c4ccccc4)CC3)c2c1 [carmoxirole]
Conditions	drug sensitivity score	relative viability EC50 [µM]
Caco-2 [6]	0	–
Caco-2 [16]	–	> 10
Calu-3 [4]	0	–
Calu-3 [18]	–	> 10
HepG2 [1]	0	–
HepG2 [17]	–	> 10
U2OS [3]	0	–
U2OS [14]	–	> 10
Vero E6 [2]	0	–
Vero E6 [13]	–	> 10

cell viability [%]
Conditions	Caco-2 [7]	Calu-3 [11]	HepG2 [8]	U2OS [10]	Vero E6 [9]
1 nM	106	98.7	98.4	103	99.2
10 nM	107	112	93	99	100
100 nM	103	92.4	86.7	96.9	93.6
1000 nM	91.2	96	100	100	102
10000 nM	105	90.8	88.3	101	95.8

CN1CCC2=C(C1)C(c1ccccc1)c1ccccc12 (stereo not drawn) [phenindamine]
Conditions	drug sensitivity score	relative viability EC50 [µM]
Caco-2 [6]	0	–
Caco-2 [16]	–	> 10
Calu-3 [4]	0	–
Calu-3 [18]	–	> 10
HepG2 [1]	0	–
HepG2 [17]	–	> 10
U2OS [3]	0	–
U2OS [14]	–	> 10
Vero E6 [2]	0	–
Vero E6 [13]	–	> 10

cell viability [%]
Conditions	Caco-2 [7]	Calu-3 [11]	HepG2 [8]	U2OS [10]	Vero E6 [9]
1 nM	97.4	96.7	97	94	98.9
10 nM	95.1	107	88.6	100	96.3
100 nM	99.1	98.2	98.2	93.8	97.4
1000 nM	102	106	94.3	98	99.7
10000 nM	89	99.1	88.9	92.6	97.2

COc1ccc(CCO[C@@H]2CCCC[C@H]2N2CC[C@@H](O)C2)cc1OC [vernakalant]
Conditions	drug sensitivity score	relative viability EC50 [µM]
Caco-2 [6]	0	–
Caco-2 [16]	–	> 10
Calu-3 [4]	0	–
Calu-3 [18]	–	> 10
HepG2 [1]	0	–
HepG2 [17]	–	> 10
U2OS [3]	0	–
U2OS [14]	–	> 10
Vero E6 [2]	0	–
Vero E6 [13]	–	> 10

cell viability [%]
Conditions	Caco-2 [7]	Calu-3 [11]	HepG2 [8]	U2OS [10]	Vero E6 [9]
1 nM	101	111	89.2	102	97.8
10 nM	91.2	97.1	112	94.1	97.3
100 nM	93.9	106	99.2	103	91.7
1000 nM	101	104	100	95.2	98.6
10000 nM	106	109	110	101	106

O=C(CCCCCCCC(=O)NCCO)NCCO [adelmidrol]
Conditions	drug sensitivity score	relative viability EC50 [µM]
Caco-2 [6]	0	–
Caco-2 [16]	–	> 10
Calu-3 [4]	0	–
Calu-3 [18]	–	> 10
HepG2 [1]	0	–
HepG2 [17]	–	> 10
U2OS [3]	0	–
U2OS [14]	–	> 10
Vero E6 [2]	0	–
Vero E6 [13]	–	> 10

cell viability [%]
Conditions	Caco-2 [7]	Calu-3 [11]	HepG2 [8]	U2OS [10]	Vero E6 [9]
1 nM	93.1	94.2	112	96.3	99.2
10 nM	98.7	97.1	94.9	103	98.7
100 nM	96.2	87.2	98.6	94.5	96.4
1000 nM	104	107	94.8	99.5	96
10000 nM	98.9	104	101	103	107

Cc1[nH]c(=O)c(C#N)cc1-c1ccncc1 [milrinone]
Conditions	drug sensitivity score	relative viability EC50 [µM]
Caco-2 [6]	0.9	–
Caco-2 [16]	–	> 10
Calu-3 [4]	0	–
Calu-3 [18]	–	> 10
HepG2 [1]	0	–
HepG2 [17]	–	> 10
U2OS [3]	0	–
U2OS [14]	–	> 10
Vero E6 [2]	0	–
Vero E6 [13]	–	> 10

cell viability [%]
Conditions	Caco-2 [7]	Calu-3 [11]	HepG2 [8]	U2OS [10]	Vero E6 [9]
1 nM	100	95.3	102	103	95.6
10 nM	98.4	89.1	101	95.6	101
100 nM	103	99.5	98.3	99.9	95.3
1000 nM	87.5	108	96.2	97.7	97.6
10000 nM	85.9	101	106	100	94.5
